In brackets after ≈: the same amount, converted by molar mass. Read-outs that look alike come from different tables or passages of the source.
Tests used:
[1] = Prodrug Solubility (visual inspection in buffer); format: physicochemical; conditions: aqueous buffer, thermodynamic from solid
Description: One mg of each compound was diluted with at least 100 μl of the designated buffer, vortexed vigorously for approximately 1 minute, and visually inspected. Sodium citrate (40 mM) was buffered to pH 4 and phosphate-buffered saline was buffered to pH 7. Solutions with no remaining particles were recorded with a solubility ≧to the starting concentration. Compound suspensions were further diluted in 0.1 mL increments followed by vortexing as above, until the prodrug was dissolved. Solubilities of prodrugs ranged from 1.0 mg/ml to >10 mg/ml. The term “ND” means not determined.

[2] = Pharmacokinetics of Prodrugs in Animal Models, all species tested (summary); format: in vivo, mice, rats, or dogs; conditions: for PK parameters, normalized to the dose, compared with the respective parameters for Compound 1: all species tested (Table 3a-3d); for conversion of the prodrug form in vivo: all species tested, inferred from PK parameters
Description: Animals were weighed and given the prodrug intravenously (mice, rats, or dogs) or orally (mice). The prodrugs were prepared immediately before dosing in 40 mM sodium citrate buffer, pH 4. Compound 1 was prepared in 20% HPβCD and warmed until dissolved (IV dosing), or in 0.5% methocel as a suspension (PO dosing). At 0, 0.08, 0.25, 0.5, 1, 2, 4, 6, 8, and 24 hours, blood was removed (via cardiac puncture in euthanized mice, via orbital sinus puncture in anesthetized rats, or via cephalic vein in conscious dogs) and 200 µL of the plasma supernatant was immediately frozen (−70° C.).
On the day of analysis, the samples were thawed on ice and 100 μL was diluted with 200 μL of acetonitrile. The samples were vortexed and then centrifuged at 3000×g for 5 minutes to pellet the precipitated plasma proteins. The supernatant was analyzed by HPLC, or by LC-MS-MS. A standard curve was constructed by spiking a known quantity of Compound 1 into plasma and then performing serial dilutions in the range of 0.01 to 10 μg/mL. Pharmacokinetic (PK) parameters were calculated by WinNonlin Pro, version 3.1.
The term “ND” means not determined. The term “NA” means not applicable. The dose of each prodrug was normalized to the Compound 1 dose. The values of the PK parameters for the prodrug form for Compounds 4a and 21a are based on the resulting accumulation and elimination of Compound 1.

S. aureus Smith = experiment: Mouse Systemic Lethal Infection Model; format: in vivo; conditions: Staphylococcus aureus, female Swiss Webster mice, infected intraperitoneally, three day survival, prodrug ED50 normalized to content of Compound 1
Description: Female Swiss Webster mice weighing between 20-25 g were infected intraperitoneally with approximately 5×10^5 colony forming units (CFU) S. aureus Smith in 7% mucin. One hour later, the animals were given prodrug or Compound 1 intravenously or orally in a dose volume of 0.1 mL/10 g body weight. Each group consisted of eight animals. The prodrugs were prepared immediately before dosing in 40 mM sodium citrate buffer, pH 4. Compound 1 was prepared in 20% HPβCD and warmed until dissolved (IV dosing) or in 0.5% methocel (PO dosing) as a suspension. The mice were observed over a three day period and ED50 values were calculated from the resulting % survival curves (Table 2). The term “ND” means not determined. The prodrug ED50 values were normalized to the content of Compound 1.

[3] = Solubility of Compound 1 in pH 4 buffer (24 h shaking, HPLC); format: physicochemical; conditions: aqueous buffer, thermodynamic from solid, ambient temperature
Description: The solubility of the active drug, Compound 1, was determined in a separate experiment in which an excess of the compound was added to pH 4 buffer. The mixture was shaken with a Burrell wrist action shaker at ambient temperature for 24 hours. Excess solute was removed by centrifugation, the supernatant was diluted with a suitable solvent, and the concentration of the compound was measured using HPLC. The solubility of Compound 1 at pH 4 was 0.007 mg/mL.

[4] = 40 mM sodium citrate buffer, Sodium citrate (40 mM) pH 4, read-out: Solubility Sodium Citrate
[5] = phosphate-buffered saline pH 7, read-out: Solubility Saline

For `CC(=O)N(C[C@H]1CN(c2ccc(N3Cc4cn(C)nc4C3)c(F)c2)C(=O)O1)C(=O)OC(C)OC(=O)CN1CCNCC1` (stereo partly drawn) [Compound 4b, Piperazin-1-yl-acetic acid 1-(acetyl-{(R)-3-[3-fluoro-4-(2-methyl-2,6-dihydro-4H-pyrrolo[3,4-c]pyrazol-5-yl)-phenyl]-2-oxo-oxazolidin-5-ylmethyl}-carbamoyloxy)-ethyl ester], the solubility at 1 min [1, 4] was ≥ 7500 µg/mL.
With `CCOP(=O)(O)OCOC(=O)N(C[C@H]1CN(c2ccc(N3Cc4cn(C)nc4C3)c(F)c2)C(=O)O1)C(C)=O` [Compound 21a, Acetyl-{(R)-3-[3-fluoro-4-(2-methyl-2,6-dihydro-4H-pyrrolo[3,4-c]pyrazol-5-yl)-phenyl]-2-oxo-oxazolidin-5-ylmethyl}-carbamic acid ethoxy-hydroxy-phosphoryloxymethyl ester] the “PK parameters, normalized to the dose, compared with the respective parameters for Compound 1” value [2] was “similar”, the “conversion of the prodrug form in vivo” value [2] was “rapidly converted in vivo to Compound 1” and the solubility at 1 min ([1]; Sodium citrate (40 mM) pH 4, read-out: Solubility Sodium Citrate) was ≥ 10000 µg/mL. The solubility at 1 min [1, 5] was ≥ 10000 µg/mL.
`CC(=O)N(C[C@H]1CN(c2ccc(N3Cc4cn(C)nc4C3)c(F)c2)C(=O)O1)C(=O)OCOC(=O)CN1CCOCC1` [Compound 6, Morpholin-4-yl-acetic acid (acetyl-{(R)-3-[3-fluoro-4-(2-methyl-2,6-dihydro-4H-pyrrolo[3,4-c]pyrazol-5-yl)-phenyl]-2-oxo-oxazolidin-5-ylmethyl}-carbamoyloxy)-methyl ester] showed a solubility at 1 min [1, 4] of 2500 µg/mL (≈ 4.35 mM) and a solubility at 1 min [1, 5] of 1000 µg/mL (≈ 1.74 mM).
With `CC(=O)N(C[C@H]1CN(c2ccc(N3Cc4cn(C)nc4C3)c(F)c2)C(=O)O1)C(=O)OCOC(=O)CN1CCNCC1` [Compound 4a, Piperazin-1-yl-acetic acid (acetyl-{(R)-3-[3-fluoro-4-(2-methyl-2,6-dihydro-4H-pyrrolo[3,4-c]pyrazol-5-yl)-phenyl]-2-oxo-oxazolidin-5-ylmethyl}-carbamoyloxy)-methyl ester] the “PK parameters, normalized to the dose, compared with the respective parameters for Compound 1” value [2] was “similar”, the “conversion of the prodrug form in vivo” value [2] was “rapidly converted in vivo to Compound 1” and the solubility at 1 min [1, 4] was ≥ 10000 µg/mL. For the same compound, the solubility at 1 min [1, 5] was ≥ 10000 µg/mL.
In the case of `CC(=O)NC[C@H]1CN(c2ccc(N3Cc4cn(C)nc4C3)c(F)c2)C(=O)O1` [Compound 1], the ED50 (S. aureus Smith; dosed intravenously one hour later, read-out: ED50 (95% Fiducial Limits) IV) is reported as 3.3 mg/kg, the ED50 (S. aureus Smith; dosed orally one hour later, read-out: ED50 (95% Fiducial Limits) PO) is reported as 3.5 mg/kg and the solubility at 24 h [3] is reported as 7 µg/mL (≈ 0.0187 mM).
With `CC(=O)N(C[C@H]1CN(c2ccc(N3Cc4cn(C)nc4C3)c(F)c2)C(=O)O1)C(=O)OCOC(=O)CN1CCN(C)CC1` [Compound 8, (4-Methyl-piperazin-1-yl)-acetic acid (acetyl-{(R)-3-[3-fluoro-4-(2-methyl-2,6-dihydro-4H-pyrrolo[3,4-c]pyrazol-5-yl)-phenyl]-2-oxo-oxazolidin-5-ylmethyl}-carbamoyloxy)-methyl ester] the solubility at 1 min [1, 4] was ≥ 10000 µg/mL and the solubility at 1 min [1, 5] was ≥ 10000 µg/mL.
With `CC(=O)N(C[C@H]1CN(c2ccc(N3Cc4cn(C)nc4C3)c(F)c2)C(=O)O1)C(=O)OCOC(=O)COP(=O)(O)O` [Compound 24, Phosphonooxy-acetic acid (acetyl-{(R)-3-[3-fluoro-4-(2-methyl-2,6-dihydro-4H-pyrrolo[3,4-c]pyrazol-5-yl)-phenyl]-2-oxo-oxazolidin-5-ylmethyl}-carbamoyloxy)-methyl ester] the solubility at 1 min [1, 4] was ≥ 5000 µg/mL.
In the case of `CC(=O)N(C[C@H]1CN(c2ccc(N3Cc4cn(C)nc4C3)c(F)c2)C(=O)O1)C(=O)OCOP(=O)(O)O` [Compound 18a, Acetyl-{(R)-3-[3-fluoro-4-(2-methyl-2,6-dihydro-4H-pyrrolo[3,4-c]pyrazol-5-yl)-phenyl]-2-oxo-oxazolidin-5-ylmethyl}-carbamic acid phosphonooxymethyl ester], the solubility at 1 min [1, 4] is reported as ≥ 2000 µg/mL and the solubility at 1 min [1, 5] is reported as ≥ 2000 µg/mL.
In the case of `CNCC(=O)OCOC(=O)N(C[C@H]1CN(c2ccc(N3Cc4cn(C)nc4C3)c(F)c2)C(=O)O1)C(C)=O` [Compound 10, Methylamino-acetic acid (acetyl-{(R)-3-[3-fluoro-4-(2-methyl-2,6-dihydro-4H-pyrrolo[3,4-c]pyrazol-5-yl)-phenyl]-2-oxo-oxazolidin-5-ylmethyl}-carbamoyloxy)-methyl ester], the solubility at 1 min [1, 4] is reported as ≥ 10000 µg/mL and the solubility at 1 min [1, 5] is reported as ≥ 10000 µg/mL.
In the case of `CC(=O)N(C[C@H]1CN(c2ccc(N3Cc4cn(C)nc4C3)c(F)c2)C(=O)O1)C(=O)OCOC(=O)CN(C)C` [Compound 5, Dimethylamino-acetic acid (acetyl-{(R)-3-[3-fluoro-4-(2-methyl-2,6-dihydro-4H-pyrrolo[3,4-c]pyrazol-5-yl)-phenyl]-2-oxo-oxazolidin-5-ylmethyl}-carbamoyloxy)-methyl ester], the solubility at 1 min [1, 4] is reported as ≥ 10000 µg/mL and the solubility at 1 min [1, 5] is reported as ≥ 10000 µg/mL.

— US7776855B2, “Antimicrobial oxazolidinone prodrugs” (Janssen Pharmaceutica N.V., priority 2006, dated 2010)
